Reference: patent US11939311B2, “Acid-labile surfactants” (Promega Corporation, priority 2019, dated 2024)

Columns and labels:
[1] = Acid stability in 2% TFA, LCMS; conditions: 3 mM stock diluted 6-times to 2% TFA-NanoPure water
Protocol: To test for acid stability, a 3% stock solution (9 mg/300 μL) of each example compound was prepared in NanoPure water. A secondary 3 mM stock solution was prepared in NanoPure water. The secondary stock was diluted 6-times in NanoPure water as a control or diluted 6-times into 2.4% TFA-NanoPure water to 2% TFA-NanoPure water for the acid stability experiment. The solutions were heated to 40° C. for 1 hour and analyzed by LCMS.
(§1) Compound purity and percent remaining were determined by integrating peaks in the total ion chromatogram using LCMS. Compound peaks were identified in negative mode using the molecular weight without sodium. The mobile phase of acetonitrile and water contained 10 mM ammonium acetate using a Synergi Max-RP column, 50×4.6 mm, 2.5 microns.

[2] = Thermal stability, LCMS (% remaining at 95° C. for 1 h); conditions: 20 mM DMSO stock diluted 100-times into Tris-based PCR buffer
Protocol: To test for thermal stability (% remaining at 95° C. for 1 h), 20 mM stock solutions of example compounds in DMSO were prepared. The stock solutions were diluted 100-times into a Tris-based PCR buffer and heated to 95° C. for 1 hour in a thermocycler. The solutions were then analyzed by LCMS.
as §1

Trypsin Gold (Promega) = biological target: T1, Trypsin Gold (Promega) (Sus scrofa, UniProt P00761); assay: Trypsin compatibility with the trypsin-specific substrate BAEE; type: biochemical; conditions: 0.1% surfactant, 200 μM BAEE; for Slope: 0.2 μg Trypsin Gold, absorbance at 253 nm every minute over 10 minutes; for % Trypsin Activity: compared to control of trypsin without surfactant
T1 construct: purchased Promega
T1 sequence (P00761 9-231): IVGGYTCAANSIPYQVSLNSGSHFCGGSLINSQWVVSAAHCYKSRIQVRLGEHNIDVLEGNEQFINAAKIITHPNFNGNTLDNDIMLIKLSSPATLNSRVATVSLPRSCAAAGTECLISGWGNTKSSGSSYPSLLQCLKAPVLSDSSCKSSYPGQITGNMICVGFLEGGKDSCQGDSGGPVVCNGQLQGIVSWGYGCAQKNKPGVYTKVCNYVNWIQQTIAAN
Protocol: Compatibility of the different compounds with trypsin was tested using a trypsin-specific substrate, benzoyl-L-arginine ethyl ester hydrochloride (BAEE). 4% stock solutions (12 mg/300 μL) of example compounds were prepared in NanoPure water. The stock solution was diluted 40 times in 50 mM ammonium bicarbonate, pH 7.8 (0.1% final) with 200 μM of BAEE. The entire sample was transferred to an individual well in a 96-well UV-compatible microplate. The absorbance of the sample was measured at 253 nm using a TECAN M1000 plate reader. After 2 minutes, 0.2 μg of Trypsin Gold (Promega) was added to the reaction and absorbance at 253 nm was monitored every minute over a period of 10 minutes. The resulting activity measurement was compared to the control of trypsin without surfactant present. Trypsin is the most commonly used protease for the digestion of protein mass spectrometry samples. The results from this experiment indicate that the compounds have a minimal effect on trypsin activity and can be used during the sample digestion step.

Compound	% remaining after 1 h at 40° C. in 2% TFA [1]	% remaining after 1 hour at 95° C. in Polymerase Buffer C [2]	Slope (Trypsin Gold (Promega))	% Trypsin Activity (Trypsin Gold (Promega)) [%]
CCCCCCCCCCC1(C)OCC(COC(=O)NCCCS(=O)(=O)[O-])O1.[Na+] (stereo not shown) [AF-0045, Sodium 3-((((2-decyl-2-methyl-1,3-dioxolan-4-yl)methoxy)carbonyl)amino)propane-1-sulfonate]	0%	89.3%		
CCCCCCCCCCCC1OCC(COC(=O)Nc2ccc(N(CCCS(=O)(=O)[O-])CCCS(=O)(=O)[O-])cc2)O1.[Na+].[Na+] (stereo not shown) [CS-0843, Sodium 3,3′-((4-((((2-undecyl-1,3-dioxolan-4-yl)methoxy)carbonyl)amino)phenyl)-azanediyl)bis(propane-1-sulfonate)]	22%	>99%		
CCCCCOC(C)(COC(=O)Nc1ccc(N(CCCS(=O)(=O)[O-])CCCS(=O)(=O)[O-])cc1)OCCCCC.[Na+].[Na+] [CS-0853, Sodium 3,3′-((4-(((2,2-bis(pentyloxy)propoxy)carbonyl)amino)phenyl)azanediyl) bis(propane-1-sulfonate)]	42%	2.5%		
CCCCCCCCCCCC1(C)OCC(COC(=O)NCC(O)CS(=O)(=O)[O-])O1.[Na+] (stereo not shown) [HW-0797, Sodium 2-hydroxy-3-((((2-methyl-2-undecyl-1,3-dioxolan-4-yl)methoxy)carbonyl)amino)propane-1-sulfonic Acid]	Not soluble	83.6%		
CCCCCCCCCCC1OCC(COC(=O)NCC(O)CS(=O)(=O)[O-])O1.[Na+] (stereo not shown) [HW-0801, Sodium 3-((((2-decyl-1,3-dioxolan-4-yl)methoxy)carbonyl)amino)-2-hydroxypropane-1-sulfonic Acid]	Not soluble	94.1%		
CCCCCCCCCCCC1OCC(COC(=O)NCC(O)CS(=O)(=O)[O-])O1.[Na+] (stereo not shown) [HW-0805, Sodium 2-hydroxy-3-((((2-undecyl-1,3-dioxolan-4-yl)methoxy)carbonyl)amino)propane-1-sulfonate]	Not soluble	94.2%		
CCCCCCCCCCCCC1OCC(COC(=O)NCC(O)CS(=O)(=O)[O-])O1.[Na+] (stereo not shown) [HW-0807, Sodium 3-((((2-dodecyl-1,3-dioxolan-4-yl)methoxy)carbonyl)amino)-2-hydroxypropane-1-sulfonic Acid]	Not soluble	Not soluble		
CCCCCCCCCCC1OCC(COC(=O)NCCCS(=O)(=O)[O-])O1.[Na+] (stereo not shown) [JRW-1564, Sodium 3-((((2-decyl-1,3-dioxolan-4-yl)methoxy)carbonyl)amino)propane-1-sulfonate]	1%	95.2%		
CCCCCCCCCCCC1OCC(COC(=O)NCCCS(=O)(=O)[O-])O1.[Na+] (stereo not shown) [JRW-1565, Sodium 3-((((2-undecyl-1,3-dioxolan-4-yl)methoxy)carbonyl)amino)propane-1-sulfonate]	1%	95.7%		
CCCCCCCCCCCC1(C)OCC(COC(=O)NCCCS(=O)(=O)[O-])O1.[Na+] (stereo not shown) [JRW-1573, Sodium 3-((((2-methyl-2-undecyl-1,3-dioxolan-4-yl)methoxy)carbonyl)amino)propane-1-sulfonate]	0%	95.0%	0.0133	92
CCCCCCCCCCCCC1OCC(COC(=O)NCCCS(=O)(=O)[O-])O1.[Na+] (stereo not shown) [JRW-1574, Sodium 3-((((2-dodecyl-1,3-dioxolan-4-yl)methoxy)carbonyl)amino)propane-1-sulfonate]	4%	92.8%		
CCCCCC1(CCCCC)OCC(COC(=O)NCC(O)CS(=O)(=O)[O-])O1.[Na+] (stereo not shown) [JZ-0164, Sodium 3-((((2,2-dipentyl-1,3-dioxolan-4-yl)methoxy)carbonyl)amino)-2-hydroxypropane-1-sulfonate]	0%	93.8%		
CCCCCC1(CCCCC)OCC(COC(=O)NCCCS(=O)(=O)[O-])O1.[Na+] (stereo not shown) [JZ-0177, Sodium 3-((((2,2-dipentyl-1,3-dioxolan-4-yl)methoxy)carbonyl)amino)propane-1-sulfonate]	0%	99.4%		
CCCCCCC1(CCCCCC)OCC(COC(=O)NCC(O)CS(=O)(=O)[O-])O1.[Na+] (stereo not shown) [JZ-0179, Sodium 3-((((2,2-dihexyl-1,3-dioxolan-4-yl)methoxy)carbonyl)amino)-2-hydroxypropane-1-sulfonate]	100%	83.9%		
CCCCCOC(C)(COC(=O)NCCCS(=O)(=O)[O-])OCCCCC.[Na+] [RBK-0168]		5.4%		
CCCCCCOC(C)(COC(=O)NCCCS(=O)(=O)[O-])OCCCCCC.[Na+] [RBK-0169]		6.0%		
CCCCCCCC1(CCCCCCC)OCC(COC(=O)NCCCS(=O)(=O)[O-])O1.[Na+] (stereo not shown) [RBK-0170]	0%	88.3%	0.0107	74
CCCCCOC(C)(COC(=O)NCC(O)CS(=O)(=O)[O-])OCCCCC.[Na+] (stereo not shown) [RBK-0171]		13.1%		
CCCCCCOC(C)(COC(=O)NCC(O)CS(=O)(=O)[O-])OCCCCCC.[Na+] (stereo not shown) [RBK-0172]		8.2%		
CCCCCCCC1(CCCCCCC)OCC(COC(=O)NCC(O)CS(=O)(=O)[O-])O1.[Na+] (stereo not shown) [RBK-0173]	Not soluble	81.2%		
CCCCCCCCCCCC1(C)OCC(COC(=O)Nc2ccc(N(CCCS(=O)(=O)[O-])CCCS(=O)(=O)[O-])cc2)O1.[Na+].[Na+] (stereo not shown) [SL-1735, Sodium 3,3′-((4-((((2-methyl-2-undecyl-1,3-dioxolan-4-yl)methoxy)carbonyl)amino)phenyl)azanediyl)bis(propane-1-sulfonate)]	0%	93.6%		
CCCCCCC1(CCCCCC)OCC(COC(=O)NCCCS(=O)(=O)[O-])O1.[Na+] (stereo not shown) [TU-1179, Sodium 3-((((2,2-dihexyl-1,3-dioxolan-4-yl)methoxy)carbonyl)amino)propane-1-sulfonate]	0%	102.9%		
CC(COC(=O)NCCCS(=O)(=O)[O-])(OCCC(F)(F)C(F)(F)C(F)(F)C(F)(F)F)OCCC(F)(F)C(F)(F)C(F)(F)C(F)(F)F.[Na+] [ZZ-0842, Sodium 3-(((2,2-bis((3,3,4,4,5,5,6,6,6-nonafluorohexyl)oxy)propoxy)carbonyl)amino)propane-1-sulfonate]	0%	>99%		
CC(COC(=O)NCC(O)CS(=O)(=O)[O-])(OCCC(F)(F)C(F)(F)C(F)(F)C(F)(F)C(F)(F)C(F)(F)F)OCCC(F)(F)C(F)(F)C(F)(F)C(F)(F)C(F)(F)C(F)(F)F.[Na+] (stereo not shown) [ZZ-0846, Sodium 3-(((2,2-bis((3,3,4,4,5,5,6,6,7,7,8,8,8-tridecafluorooctyl)oxy)propoxy)carbonyl)amino)-2-hydroxypropane-1-sulfonate]	2%	93.4%		
CC(COC(=O)NCCCS(=O)(=O)[O-])(OCCC(F)(F)C(F)(F)C(F)(F)C(F)(F)C(F)(F)C(F)(F)F)OCCC(F)(F)C(F)(F)C(F)(F)C(F)(F)C(F)(F)C(F)(F)F.[Na+] [ZZ-0849, Sodium 3-(((2,2-bis((3,3,4,4,5,5,6,6,7,7,8,8,8-tridecafluorooctyl)oxy)propoxy)carbonyl)amino)propane-1-sulfonate]	2%	>99%		
CC(COC(=O)NCC(O)CS(=O)(=O)[O-])(OCCC(F)(F)C(F)(F)C(F)(F)C(F)(F)F)OCCC(F)(F)C(F)(F)C(F)(F)C(F)(F)F.[Na+] (stereo not shown) [ZZ-0850, Sodium 3-(((2,2-bis((3,3,4,4,5,5,6,6,6-nonafluorohexyl)oxy)propoxy)carbonyl)amino)-2-hydroxypropane-1-sulfonate]	0%	90.5%		
